# According to patent US20230151037A1, “GPR40 AGONISTS” (Kallyope, Inc., priority 2020, published 2023):
# Target: T1, human GPR40 (Homo sapiens, UniProt O14842)
# T1 construct: host or cells: CHO-K1
# Assay: Inositol phosphate accumulation assay (IP1 HTRF) in CHO-K1 cells expressing human GPR40
# Assay type: cell-based
# Settings: 90 min
# Procedure: CHO-K1 cells expressing human GPR40 were purchased from DiscoverX (95-1005C2). HEK293 cells expressing mouse FFAR1 were prepared using a mouse FFAR1 carrying plasmid purchased from OriGene Technologies (MR222997). The cells were transfected using Lipofectamine 2000 using manufacturer instructions and stable cell line was established from a single cell using geneticine selection. Assay ready frozen (ARF) cells were prepared and used throughout the study.
# The assay was performed in a 384-well plate format using IP1 assay kit from Cis-Bio. ARF cells expressing FFAR1 (mouse and human) were thawed, washed and then plated in the appropriate medium (F12 based medium for CHO hFFAR1 and DMEM based medium for HEK293 mFFAR1-both were supplemented with 10% FBS and penicillin/streptomycin). 20 μL of 3.5×10^5 cells/mL were plated on a Poly D-Lysine coated 384-well white plate. The cells were then incubated for 16 hr at 37° C./5% CO2. After 16 hr the medium was removed and 15 μL of stimulation buffer containing the test compounds was added to the cells. The plates were then incubated for 90 min at 37° C./5% CO2. 5 μL of detection buffer (prepared as described in the IP-one kit) was added to each well and the plates were incubated at RT for 1 hr.
# […] was measured using ClarioSTAR plate reader, calculating the ratio between emissions at 665 nm and 620 nm (HTRF ratio). HTRF ratio for positive (Max) and negative (Min) controls were used to normalize HTRF data and generate values for % activity. EC50 and Max activity values were determined using a standard 4-parameter fit.
# T1 sequence (O14842 whole entry): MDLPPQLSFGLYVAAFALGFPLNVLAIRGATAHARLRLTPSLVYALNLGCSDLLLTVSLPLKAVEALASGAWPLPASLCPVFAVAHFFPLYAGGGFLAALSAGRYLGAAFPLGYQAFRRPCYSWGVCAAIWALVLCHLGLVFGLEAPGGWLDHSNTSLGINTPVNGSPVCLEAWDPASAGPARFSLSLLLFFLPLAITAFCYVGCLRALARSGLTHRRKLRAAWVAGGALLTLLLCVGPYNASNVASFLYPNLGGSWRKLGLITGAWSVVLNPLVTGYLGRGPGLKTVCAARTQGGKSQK
row,EC50 [nM],Compound
1,50 to 250,"COc1cc(-c2ccc(COc3cccc(C(CP(C)(=O)O)C4CC4)c3)cc2CN(C(C)C)C(C)C)c(F)cn1 (single isomer, unassigned) [Compound 10, (2-cyclopropyl-2-(3-((3-((diisopropylamino)methyl)-4-(5-fluoro-2-methoxypyridin-4-yl)benzyl)oxy)phenyl)ethyl)(methyl)phosphinic acid]"
2,> 1000,"COc1cc(-c2ccc(COc3cccc(C(CP(C)(=O)O)C4CC4)c3)cc2CN(C(C)C)C(C)C)c(F)cn1 (single isomer, unassigned) [Compound 12, (2-cyclopropyl-2-(3-((3-((diisopropylamino)methyl)-4-(5-fluoro-2-methoxypyridin-4-yl)benzyl)oxy)phenyl)ethyl)(methyl)phosphinic acid]"
3,> 1000,"CCP(=O)(O)CC(c1cccc(OCc2ccc(-c3cc(OC)ncc3F)c(CN(C(C)C)C(C)C)c2)c1)C1CC1 (single isomer, unassigned) [Compound 17, (2-cyclopropyl-2-(3-((3-((diisopropylamino)methyl)-4-(5-fluoro-2-methoxypyridin-4-yl)benzyl)oxy)phenyl)ethyl)(ethyl)phosphinic acid]"
4,> 1000,"CCP(=O)(O)CC(c1cccc(OCc2ccc(-c3cc(OC)ncc3F)c(CN(C(C)C)C(C)C)c2)c1)C1CC1 (single isomer, unassigned) [Compound 18, (2-cyclopropyl-2-(3-((3-((diisopropylamino)methyl)-4-(5-fluoro-2-methoxypyridin-4-yl)benzyl)oxy)phenyl)ethyl)(ethyl)phosphinic acid]"
5,> 1000,"CCP(=O)(O)CC(c1cccc(OCc2ccc(-c3cc(OC)ncc3F)c(CN(C(C)C)C(C)C)c2)c1)C1CC1 (single isomer, unassigned) [Compound 19, (2-cyclopropyl-2-(3-((3-((diisopropylamino)methyl)-4-(5-fluoro-2-methoxypyridin-4-yl)benzyl)oxy)phenyl)ethyl)(ethyl)phosphinic acid]"
6,> 1000,"CCP(=O)(O)CC(c1cccc(OCc2ccc(-c3cc(OC)ncc3F)c(CN(C(C)C)C(C)C)c2)c1)C1CC1 (single isomer, unassigned) [Compound 20, (2-cyclopropyl-2-(3-((3-((diisopropylamino)methyl)-4-(5-fluoro-2-methoxypyridin-4-yl)benzyl)oxy)phenyl)ethyl)(ethyl)phosphinic acid]"
7,50 to 250,"COc1cc(-c2ccc(COc3cccc(C(C)CP(C)(=O)O)c3)cc2CN(C(C)C)C(C)C)c(F)cn1 (single isomer, unassigned) [Compound 35, (2-(3-((3-((diisopropylamino)methyl)-4-(5-fluoro-2-methoxypyridin-4-yl)benzyl)oxy)phenyl)propyl)(methyl)phosphinic acid]"
8,> 1000,"COc1cc(-c2ccc(COc3cccc(C(C)CP(C)(=O)O)c3)cc2CN(C(C)C)C(C)C)c(F)cn1 (single isomer, unassigned) [Compound 36, (2-(3-((3-((diisopropylamino)methyl)-4-(5-fluoro-2-methoxypyridin-4-yl)benzyl)oxy)phenyl)propyl)(methyl)phosphinic acid]"
9,> 1000,"COc1cc(-c2ccc(COc3cc(C(C)CP(C)(=O)O)ccn3)cc2CN(C(C)C)C(C)C)c(F)cn1 (single isomer, unassigned) [Compound 39, ((R)-2-(2-((3-((diisopropylamino)methyl)-4-(5-fluoro-2-methoxypyridin-4-yl)benzyl)oxy)pyridin-4-yl)propyl)(methyl)phosphinic acid or ((S)-2-(2-((3-((diisopropylamino)methyl)-4-(5-fluoro-2-methoxypyridin-4-yl)benzyl)oxy)pyridin-4-yl)propyl)(methyl)phosphinic acid]"
10,> 1000,"COc1cc(-c2ccc(COc3cccc(C(C4CC4)C(C)P(=O)(O)O)c3)cc2CN(C(C)C)C(C)C)c(F)cn1 (centres unmarked) [Compound 6, (1-cyclopropyl-1-(3-((3-((diisopropylamino)methyl)-4-(5-fluoro-2-methoxypyridin-4-yl)benzyl)oxy)phenyl)propan-2-yl)phosphonic acid]"

# More lines, now with the values behind:
row,Compound,EC50 [nM]
1,"COc1cc(-c2ccc(COc3cccc(C(CS(=O)(=O)O)C4CC4)c3)cc2CN(C(C)C)C(C)C)c(F)cn1 (single isomer, unassigned) [Compound 14, 2-cyclopropyl-2-(3-((3-((diisopropylamino)methyl)-4-(5-fluoro-2-methoxypyridin-4-yl)benzyl)oxy)phenyl)ethanesulfonic acid]",> 1000
2,"COc1cc(-c2ccc(COc3cccc(C(CS(=O)(=O)O)C4CC4)c3)cc2CN(C(C)C)C(C)C)c(F)cn1 (single isomer, unassigned) [Compound 15, 2-cyclopropyl-2-(3-((3-((diisopropylamino)methyl)-4-(5-fluoro-2-methoxypyridin-4-yl)benzyl)oxy)phenyl)ethanesulfonic acid]",> 1000
3,"COc1ccc(F)c(-c2ccc(COc3cccc(C(C)CP(C)(=O)O)c3)cc2[C@@H](OC)C(C)(C)C)c1 (single isomer, unassigned) [Compound 32]",≤ 50
4,"COc1ccc(F)c(-c2ccc(COc3cccc(C(C)CP(C)(=O)O)c3)cc2[C@@H](OC)C(C)(C)C)c1 (single isomer, unassigned) [Compound 33]",≤ 50
5,"COc1cc(-c2ccc(COc3cc(C(C)CP(C)(=O)O)ccn3)cc2[C@@H](OC)C(C)(C)C)c(F)cn1 (single isomer, unassigned) [Compound 37]",≤ 50
6,"COc1cc(-c2ccc(COc3cc(C(C)CP(C)(=O)O)ccn3)cc2[C@@H](OC)C(C)(C)C)c(F)cn1 (single isomer, unassigned) [Compound 38]",≤ 50
7,"COc1ccc(F)c(-c2ccc(COc3cc(C(C)CP(C)(=O)O)ccn3)cc2[C@@H](OC)C(C)(C)C)c1 (single isomer, unassigned) [Compound 40, ((R)-2-(2-((2′-fluoro-5′-methoxy-2-((S)-1-methoxy-2,2-dimethylpropyl)-[1,1′-biphenyl]-4-yl)methoxy)pyridin-4-yl)propyl)(methyl)phosphinic acid or ((S)-2-(2-((2′-fluoro-5′-methoxy-2-((S)-1-methoxy-2,2-dimethylpropyl)-[1,1′-biphenyl]-4-yl)methoxy)pyridin-4-yl)propyl)(methyl)phosphinic acid]",≤ 50
8,"COc1cc(-c2ccc(COc3cccc(C(CS(=O)(=O)O)C4CC4)c3)cc2CN(C(C)C)C(C)C)c(F)cn1 (centres unmarked) [Compound 1, 2-cyclopropyl-2-(3-((3-((diisopropylamino)methyl)-4-(5-fluoro-2-methoxypyridin-4-yl)benzyl)oxy)phenyl)ethanesulfonic acid]",> 1000
9,"COc1cc(-c2ccc(COc3cccc([C@H](C4CC4)[C@@](C)(F)C(=O)NS(C)(=O)=O)c3)cc2CN(C(C)C)C(C)C)c(F)cn1 [Compound 4, (2R,3S)-3-cyclopropyl-3-(3-((3-((diisopropylamino)methyl)-4-(5-fluoro-2-methoxypyridin-4-yl)benzyl)oxy)phenyl)-2-fluoro-2-methyl-N-(methylsulfonyl)propanamide]",≤ 50
10,"COc1cc(-c2ccc(COc3cccc(C(CP(=O)(O)OC)C4CC4)c3)cc2CN(C(C)C)C(C)C)c(F)cn1 (centres unmarked) [Compound 5, methyl hydrogen (2-cyclopropyl-2-(3-((3-((diisopropylamino)methyl)-4-(5-fluoro-2-methoxypyridin-4-yl)benzyl)oxy)phenyl)ethyl)phosphonate]",> 1000
